This note sets out measurements from patent US20230365584A1, “HETEROCYCLIC PERICONDENSED CDC7 KINASE INHIBITORS FOR THE TREATMENT OF CANCER” (SCHRÖDINGER, INC., priority 2020, published 2023).

Some results are limits rather than exact numbers.

Experiment [1] relates to phosphorylation of MCM2 S53 in colo205 cells. The experiment in a line: Phosphorylated MCM2 MSD electrochemiluminescence assay. Type of experiment: cell-based. The following applies: Homo sapiens, COLO 205, 20 h incubation, read-out: pMCM2-S53 MSD Colo205 IC50. As to the method:
Phosphorylated MCM2 MSD Electrochemiluminescence Assay
The effect of CDC7 inhibitors on cellular phosphorylation of the CDC7 substrate MCM2 was determined using the following protocol:
A total of 40,000 colo205 cells in 100 uL culture medium (1640 medium+10% Fetal bovine serum+1% Penicillin-Streptomycin) were plated in 96-well cell culture plates and allowed to attach for 6 hours. 3-fold serial dilutions of test compounds were prepared in completed PBS at 25×final concentration and 4 uL of each were added to the cells and incubated for 20 hours at 37° C., 5% CO2. Each concentration was tested in duplicate. After the 20 h incubation, cells were washed with 150 uL PBS and lysed with 40 uL MSD lysis buffer (obtained from Meso Scale Diagnostics) supplied with 1×complete ULTRA cocktail inhibitor (obtained from Roche). To detect phosphorylation of MCM2 S53, 30 μL of capture antibody solution (obtained from Abnova, catalog number H00004171-MO1, 1:500) was added to each well of MULTI-ARRAY 96-well High Bind Plate, and incubated overnight. The antibody solution was removed, wells blocked with BSA solution and plates washed, followed by addition of 30 ul of cell lysate per well. After 2 h incubation, plates were washed. 30 μL of 1×detection antibody solution (obtained from Abcam, catalog number ab109133, 1:1000) was then added to each well and incubate for 1 hour. Plates were washed and 30 μL of 1×secondary antibody solution (obtained from MSD, catalog number R32AB-1, 1:5000) was added to each well and incubate for 1 hour. Plates were washed and 150 µL of 1×Read Buffer T was added to each well of the MSD plate. The electrochemiluminescence signal was measured on a MESO SECTOR S600 plate reader. The percentage of remaining phosphorylated MCM2 signal was calculated following the equation below.
[formula] • HC (high control): Cells treated with DMSO • Cpds: Cells treated with test compounds • LC (low control): Cells treated with positive control CDC7 inhibitor

Experiment [2] deals with Full length human CDC7 protein co-expressed with DBF4 (Homo sapiens (Human), UniProt O00311). In words: CDC7 kinase biochemical assay (ADP-Glo, PDKtide substrate). The following applies: 0.1 nM CDC7/DBF4, 1 uM ATP, 10 uM PDKtide, 4 h. As to the method: CDC7 Kinase Biochemical Assay Protocol:
Full length human CDC7 protein co-expressed with DBF4 was purchased from SignalChem (China). CDC7 kinase activity was determined with PDKtide (SignalChem) as a substrate and by measuring ADP production using the ADP-Glo™ Kinase Assay kit (Promega) following the manufacturers instructions. The kinase reaction was performed using the following conditions: Buffer: 40 mM Tris pH 7.5, 20 mM MgCl2, 0.1 mg/ml BSA and 50 uM DTT. Final reaction mix contained 0.1 nM CDC7/DBF4, 1 uM ATP and 10 uM PDKtide. The kinase reaction time was 4 h. The ADP-Glo signal was measured using an EnVision plate reader (PerkinELmer).
Percent inhibition of CDC7 kinase activity was calculated based on the following formula:
[formula] • Ssample: the signal of compounds • SHigh Ctrl: the signal of high control (DMSO) • SLow Ctrl: the signal of low control (positive control CDC7 inhibitor)

Chain of Full length human CDC7 protein co-expressed with DBF4 (O00311 whole entry): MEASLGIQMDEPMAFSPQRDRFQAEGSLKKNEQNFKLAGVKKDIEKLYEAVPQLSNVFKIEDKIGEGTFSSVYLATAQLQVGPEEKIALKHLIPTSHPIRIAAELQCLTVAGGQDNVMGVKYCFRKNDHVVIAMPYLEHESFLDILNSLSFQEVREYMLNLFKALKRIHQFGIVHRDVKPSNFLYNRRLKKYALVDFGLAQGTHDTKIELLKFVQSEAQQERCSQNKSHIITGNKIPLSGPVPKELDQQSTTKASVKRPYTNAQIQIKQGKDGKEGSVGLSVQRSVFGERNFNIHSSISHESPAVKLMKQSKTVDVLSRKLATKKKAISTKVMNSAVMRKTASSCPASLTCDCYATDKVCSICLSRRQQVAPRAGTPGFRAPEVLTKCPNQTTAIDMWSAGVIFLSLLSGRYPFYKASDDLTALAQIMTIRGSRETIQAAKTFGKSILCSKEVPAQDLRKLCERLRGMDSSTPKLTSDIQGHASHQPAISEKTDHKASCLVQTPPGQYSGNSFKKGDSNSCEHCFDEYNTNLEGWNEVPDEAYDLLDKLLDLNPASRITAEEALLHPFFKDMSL
Chain of Full length human CDC7 protein co-expressed with DBF4 (Q9UBU7 whole entry partner): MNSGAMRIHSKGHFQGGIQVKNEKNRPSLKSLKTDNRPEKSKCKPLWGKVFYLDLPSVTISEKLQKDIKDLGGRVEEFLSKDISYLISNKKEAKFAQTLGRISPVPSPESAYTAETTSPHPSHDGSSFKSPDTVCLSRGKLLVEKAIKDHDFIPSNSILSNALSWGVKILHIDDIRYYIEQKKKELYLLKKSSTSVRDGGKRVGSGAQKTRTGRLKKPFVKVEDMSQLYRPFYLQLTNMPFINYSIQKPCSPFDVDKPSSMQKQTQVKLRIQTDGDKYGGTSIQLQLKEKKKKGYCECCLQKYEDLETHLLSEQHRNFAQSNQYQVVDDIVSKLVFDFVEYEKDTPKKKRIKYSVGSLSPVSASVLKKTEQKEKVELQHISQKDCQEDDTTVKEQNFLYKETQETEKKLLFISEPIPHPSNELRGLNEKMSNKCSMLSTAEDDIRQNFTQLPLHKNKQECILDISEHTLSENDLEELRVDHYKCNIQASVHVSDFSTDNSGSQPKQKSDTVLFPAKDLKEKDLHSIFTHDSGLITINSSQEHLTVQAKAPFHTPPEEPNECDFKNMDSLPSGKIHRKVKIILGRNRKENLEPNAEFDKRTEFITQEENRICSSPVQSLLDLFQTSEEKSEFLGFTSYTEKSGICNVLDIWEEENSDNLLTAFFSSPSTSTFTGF

For the compound `C[C@H](c1[nH]c(=O)c2sc(-c3cn[nH]c3)c3c2c1CCCO3)N1CCC1` (single isomer, unassigned) [Example 31], the IC50 in experiment [1] is under 100 nM; in experiment [2], under 1 nM. The corresponding values for `Cc1[nH]c(=O)c2sc(-c3ccncc3)c3c2c1C[C@H](C)O3` (single isomer, unassigned) [Example 8] are 100 to 1000 nM and under 1 nM. Regarding `Nc1[nH]c(=O)c2sc(-c3cn[nH]c3)c3c2c1CCCO3` [Example 54, 7-amino-2-(1H-pyrazol-4-yl)-12-oxa-3-thia-6-azatricyclo[6.4.1.0^4,13]trideca-1,4(13),7-trien-5-one], the IC50 in experiment [1] is at least 1000 nM; in experiment [2], under 1 nM.

`Cc1[nH]c(=O)c2sc(-c3cn[nH]c3)c3c2c1CCCO3` [Example 5, 5-methyl-1-(1H-pyrazol-4-yl)-4,6,7,8-tetrahydro-3H-9-oxa-2-thia-4-azabenzo[cd]azulen-3-one]: the results for the IC50 in experiment [1] and in experiment [2] were under 100 nM and under 1 nM, respectively. `COC[C@@H](c1[nH]c(=O)c2sc(-c3cn[nH]c3)c3c2c1CCCO3)n1cccn1` (single isomer, unassigned) [Example 36] yielded an IC50 in experiment [2] of under 1 nM.

`C[C@@H]1Cc2c(CN3CC(O)C3)[nH]c(=O)c3sc(-c4cn[nH]c4)c(c23)O1` (single isomer, unassigned) [Example 80]: the IC50 in experiment [2] was under 1 nM.

In experiment [2], `O=c1[nH]c(Cn2cccn2)c2c3c(c(-c4ccncc4)sc13)OCCC2` [Example 21, 7-(pyrazol-1-ylmethyl)-2-(4-pyridyl)-12-oxa-3-thia-6-azatricyclo[6.4.1.0^4,13]trideca-1,4(13),7-trien-5-one] had an IC50 of under 1 nM. Still for that read-out and setting: the result for `O=c1[nH]c(CN2CCC2)c2c3c(c(-c4ccncc4)sc13)OCCC2` [Example 12, 5-(azetidin-1-ylmethyl)-1-(pyridin-4-yl)-4,6,7,8-tetrahydro-3H-9-oxa-2-thia-4-azabenzo[cd]azulen-3-one] reads under 1 nM; that for `O=c1[nH]c(Cn2ccnc2)c2c3c(c(-c4cn[nH]c4)sc13)OCCC2` [Example 22, 7-(imidazol-1-ylmethyl)-2-(1H-pyrazol-4-yl)-12-oxa-3-thia-6-azatricyclo[6.4.1.0^4,13]trideca-1,4(13),7-trien-5-one], under 1 nM. Still for that read-out and setting: the result for `CC[C@@](C)(O)c1[nH]c(=O)c2sc(-c3ccncc3)c3c2c1CCCO3` (single isomer, unassigned) [Example 72] reads under 1 nM; that for `CC(=O)N(C)c1[nH]c(=O)c2sc(-c3cn[nH]c3)c3c2c1CCCO3` [Example 56, N-methyl-N-(3-oxo-1-(1H-pyrazol-4-yl)-4,6,7,8-tetrahydro-3H-9-oxa-2-thia-4-azabenzo[cd]azulen-5-yl)acetamide], under 1 nM. Same read-out and setting: the value for `C[C@@H]1Cc2c(CN3CC[C@@H]3C)[nH]c(=O)c3sc(-c4cn[nH]c4)c(c23)O1` (single isomer, unassigned) [Example 82] was under 1 nM; that for `O=c1[nH]c(CN2CCCCC2)c2c3c(c(-c4cn[nH]c4)sc13)OCCC2` [Example 23, 5-(piperidin-1-ylmethyl)-1-(1H-pyrazol-4-yl)-4,6,7,8-tetrahydro-3H-9-oxa-2-thia-4-azabenzo[cd]azulen-3-one] was under 1 nM; that for `C[C@H](c1[nH]c(=O)c2sc(-c3cn[nH]c3)c3c2c1CCCO3)n1cc(C#N)cn1` (single isomer, unassigned) [Example 27] was under 1 nM. Compound `C[C@](O)(c1[nH]c(=O)c2sc(-c3cn[nH]c3)c3c2c1CCCO3)C1CC1` (single isomer, unassigned) [Example 60] registered an IC50 in experiment [2] of under 1 nM. The same measure, in the same setting: the result for `Cc1n[nH]cc1-c1sc2c(=O)[nH]c(Cn3cccn3)c3c2c1OCCC3` [Example 20, 2-(3-methyl-1H-pyrazol-4-yl)-7-(pyrazol-1-ylmethyl)-12-oxa-3-thia-6-azatricyclo[6.4.1.0^4,13]trideca-1,4(13),7-trien-5-one] reads under 1 nM. On the same count and under the same terms, the result for `COC[C@@H](c1[nH]c(=O)c2sc(-c3cn[nH]c3)c3c2c1CCCO3)N1CCC(F)(F)C1` (single isomer, unassigned) [Example 38] reads 1 to 10 nM. On the same count and under the same terms, the value for `O=c1[nH]c(Cn2cccn2)c2c3c(c(-c4cn[nH]c4)sc13)OCCC2` [Example 18, 2-(1H-pyrazol-4-yl)-7-(pyrazol-1-ylmethyl)-12-oxa-3-thia-6-azatricyclo[6.4.1.04,13]trideca-1,4(13),7-trien-5-one] was under 1 nM; that for `C[C@H]1Cc2c(CN3CCC(F)(F)C3)[nH]c(=O)c3sc(-c4cn[nH]c4)c(c23)O1` (single isomer, unassigned) [Example 66] was under 1 nM. In experiment [2], `O=c1[nH]c(CN2CCC(F)(F)C2)c2c3c(c(-c4cn[nH]c4)sc13)OCCC2` [Example 25, 7-[(3,3-difluoropyrrolidin-1-yl)methyl]-2-(1H-pyrazol-4-yl)-12-oxa-13-thia-6-azatricyclo[6.4.1.0^4,13]trideca-1,4(13),7-trien-5-one] returned an IC50 of under 1 nM. Still for that read-out and setting: the value for `CC(C)(O)c1[nH]c(=O)c2sc(-c3cn[nH]c3)c3c2c1CC(F)(F)CO3` [Example 45, 10,10-difluoro-7-(1-hydroxy-1-methyl-ethyl)-2-(1H-pyrazol-4-yl)-12-oxa-3-thia-6-azatricyclo[6.4.1.0^4,13]trideca-1,4(13),7-trien-5-one] was under 1 nM.

In the case of `NCc1[nH]c(=O)c2sc(-c3cn[nH]c3)c3c2c1CCCO3` [Example 17, 7-(aminomethyl)-2-(1H-pyrazol-4-yl)-12-oxa-3-thia-6-azatricyclo[6.4.1.04,13]trideca-1,4(13),7-trien-5-one], the IC50 in experiment [2] is 1 to 10 nM. Take `Cc1[nH]c(=O)c2sc(-c3cn[nH]c3)c3c2c1CC(C)O3` (centres unmarked) [Example 9, 4,6-dimethyl-2-(1H-pyrazol-4-yl)-5,7-dihydro-3-oxa-1-thia-7-azaacenaphthylen-8(4H)-one]: in experiment [2], the IC50 was under 1 nM. On the same count and under the same terms, the value for `O=C1CCCN1Cc1[nH]c(=O)c2sc(-c3cn[nH]c3)c3c2c1CCCO3` [Example 41, 5-((2-oxopyrrolidin-1-yl)methyl)-1-(1H-pyrazol-4-yl)-4,6,7,8-tetrahydro-3H-9-oxa-2-thia-4-azabenzo[cd]azulen-3-one] was under 1 nM; that for `CC1Cc2c(CN3CC(F)C3)[nH]c(=O)c3sc(-c4cn[nH]c4)c(c23)O1` (stereo in doubt) [Example 68, (S)-6-((3-fluoroazetidin-1-yl)methyl)-4-methyl-2-(1H-pyrazol-4-yl)-5,7-dihydro-3-oxa-1-thia-7-azaacenaphthylen-8(4H)-one] was under 1 nM. On the same count and under the same terms, the result for `C[C@H]1Cc2c(CN3CC[C@@H]3C)[nH]c(=O)c3sc(-c4cn[nH]c4)c(c23)O1` (single isomer, unassigned) [Example 83] reads under 1 nM.

`O=C(c1[nH]c(=O)c2sc(-c3cn[nH]c3)c3c2c1CCCO3)N1CCOCC1` [Example 52, 7-(morpholine-4-carbonyl)-2-(1H-pyrazol-4-yl)-12-oxa-3-thia-6-azatricyclo[6.4.1.0^4,13]-trideca-1,4(13),7-trien-5-one] came in with an IC50 in experiment [2] of 1 to 10 nM.

The compound `CC(C)(O)Cc1[nH]c(=O)c2sc(-c3cn[nH]c3)c3c2c1CCCO3` [Example 77, 5-(2-hydroxy-2-methylpropyl)-1-(1H-pyrazol-4-yl)-4,6,7,8-tetrahydro-3H-9-oxa-2-thia-4-azabenzo[cd]azulen-3-one] displayed an IC50 in experiment [2] of under 1 nM. Regarding `C[C@@H]1Cc2c(CN3CC[C@H]3C)[nH]c(=O)c3sc(-c4cn[nH]c4)c(c23)O1` (single isomer, unassigned) [Example 81], the IC50 in experiment [2] is under 1 nM. The same measure, in the same setting: the value for `CC[C@@](C)(O)c1[nH]c(=O)c2sc(-c3c[nH]nc3C)c3c2c1CCCO3` (single isomer, unassigned) [Example 74] was at least 10 nM; that for `CC1Cc2c(CN3CC[C@H](F)C3)[nH]c(=O)c3sc(-c4cn[nH]c4)c(c23)O1` (stereo in doubt) [Example 70, (R)-6-(((S)-3-fluoropyrrolidin-1-yl)methyl)-4-methyl-2-(1H-pyrazol-4-yl)-5,7-dihydro-3-oxa-1-thia-7-azaacenaphthylen-8(4H)-one] was under 1 nM.
